Experiment [1] relates to SU-DHL-4 cells. The experiment in a line: Inhibitory effect on cell viability in SU-DHL-4 cell line (Test Example 1). The conditions noted are these: 72 hours; for IC50: SU-DHL-4 (wild type) cells, calculated using the measurement results of test example 1, read-out: SU-DHL-4 WT IC50; for IC90: SU-DHL-4 cells, Cell Counting Kit-8, concentration showing 90% inhibition of cell viability, read-out: SU-DHL-4 Cell Viability Inhibition Rate IC90. It is filed as cell-based, human. The method in brief:
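SU-DHL-4 cells were grown at 37° C. under 5% CO2 in RPMI1640 with 10 vol % heat-inactivated FBS plus penicillin/streptomycin, seeded and precultured for 18 to 25 hours, then exposed to test compound at 0.1 vol % DMSO for 72 hours. Viability was read with Cell Counting Kit-8 by absorbance at 450 nm.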

Experiment [2] relates to DCAF16 KO SU-DHL-4 cells. Description: Inhibitory effect on cell viability using SU-DHL-4 DCAF16 knock out (KO) cell line (Test Example 6). It is filed as cell-based, human. The conditions noted are these: for Activity Attenuation Ratio: (SU-DHL-4 DCAF16 KO IC50)/(SU-DHL-4 WT IC50); for IC50: DCAF16 KO SU-DHL-4 cells, 72 hours, Cell Counting Kit-8, 50% inhibition of cell viability. The essentials: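 SU-DHL-4 DLBCL cells carrying lentiviral Cas9 plus DCAF16-targeting sgRNA (three KO strains; non-targeting control strain), seeded 2000 cells/well, pre-cultured 18–25 h, then given 9-step compound dilutions (0.1% DMSO final) for 72 h at 37° C. Viability read by CCK-8 colorimetric assay.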

This is an account of results in patent US20220378923A1, “BET DEGRADER” (KYOWA KIRIN CO., LTD., priority 2019, published 2022).

Like-named read-outs stand apart in the source and are kept apart here.

For orientation: IC50 means the concentration at which inhibition is half-maximal. `CCC(=O)N1c2ccccc2[C@H](NCCCCCCCC(=O)Nc2ccc(N[C@@H]3C[C@H](C)N(C(=O)CC)c4ccccc43)cc2)C[C@@H]1C` (relative stereo) [Compound 12h, 8-(((2S*,4R*)-2-Methyl-1-propionyl-1,2,3,4-tetrahydroquinolin-4-yl)amino)-N-(4-(((2S,4R)-2-methyl-1-propionyl-1,2,3,4-tetrahydroquinolin-4-yl)amino)phenyl)octanamide]: the IC50 was 3.11 nM in experiment [1] (Homo sapiens) and 595 nM in experiment [2] (Homo sapiens). The “Activity Attenuation Ratio” value in experiment [2] turned out to be 191.
The term IC90 denotes the point of the concentration-response curve where the effect stands at 90%. Consider `CCC(=O)N1c2ccccc2[C@H](Nc2ccc(NC(=O)CCCC(=O)Nc3ccc(Cn4c(C(=O)OCCN(C)C)cc5c4CCCC5=O)cc3)cc2)C[C@@H]1C` [Compound 15a, 2-(Dimethylamino)ethyl 1-(4-(5-((4-(((2S,4R)-2-methyl-1-propionyl-1,2,3,4-tetrahydroquinolin-4-yl)amino)phenyl)amino)-5-oxopentanamide)benzyl)-4-oxo-4,5,6,7-tetrahydro-1H-indole-2-carboxylate], for which, in experiment [1], the IC50 is 0.28 nM and the IC90 was 0.34 nM. Further, in experiment [2], the “Activity Attenuation Ratio” value came out at 225 and the IC50 was 63 nM.
On to `CCC(=O)N1c2ccccc2[C@H](Nc2ccc(CCCC(=O)Nc3ccc(N[C@@H]4C[C@H](C)N(C(=O)CC)c5ccccc54)cc3)cc2)C[C@@H]1C` [Compound 5r, N,4-Bis(4-(((2S,4R)-2-methyl-1-propionyl-1,2,3,4-tetrahydroquinolin-4-yl)amino)phenyl)butanamide], for which the IC50 in experiment [1] (Homo sapiens) was 0.53 nM; in experiment [2] (Homo sapiens), 15.7 nM. Also, the “Activity Attenuation Ratio” value in experiment [2] came out at 30.
For `CCC(=O)N1c2ccccc2[C@H](Nc2ccc(NC(=O)CCSc3ccc(N[C@@H]4C[C@H](C)N(C(=O)CC)c5ccccc54)cc3)cc2)C[C@@H]1C` (relative stereo) [Compound 4e, N-(4-{[(2S*,4R*)-2-Methyl-1-propionyl-1,2,3,4-tetrahydroquinolin-4-yl]amino}phenyl)-3-[(4-{[(2S,4R)-2-methyl-1-propionyl-1,2,3,4-tetrahydroquinolin-4-yl]amino}phenyl)thio]propanamide], the IC50 in experiment [1] (Homo sapiens) was 0.3 nM; in experiment [2] (Homo sapiens), 75 nM. Also, the “Activity Attenuation Ratio” value in experiment [2] is listed as 250.
As for `CCNC(=O)C[C@@H]1N=C(c2ccc(SCCCCSc3ccc(C4=N[C@@H](CC(=O)NCC)c5nnc(C)n5-c5ccc(OC)cc54)cc3)cc2)c2cc(OC)ccc2-n2c(C)nnc21` [compound 1, 2,2′-((4S,4'S)-6,6′-((butane-1,4-diylbis(sulfanediyl))bis(4,1-phenylene))bis(8-methoxy-1-methyl-4H-benzo[f][1,2,4]triazolo[4,3-a][1,4]diazepine-6,4-diyl))bis(N-ethylacetamide), reference compound], in experiment [1], the IC50 is 221 nM and the IC90 was found to be 2560 nM. Further, in experiment [2], the “Activity Attenuation Ratio” value is 0.23 and the IC50 worked out at 49.2 nM.
Consider `CCC(=O)N1c2ccccc2C(Nc2ccc(NC(=O)C#CCNC(=O)c3ccc(N[C@@H]4C[C@H](C)N(C(=O)CC)c5ccccc54)cc3)cc2)CC1C` (stereo partly drawn) [Compound 6h, 4-(((2S,4R)-2-Methyl-1-propionyl-1,2,3,4-tetrahydroquinolin-4-yl)amino)-N-(4-((4-((2-methyl-1-propionyl-1,2,3,4-tetrahydroquinolin-4-yl)amino)phenyl)amino)-4-oxobut-2-yn-1-yl)benzamide], for which the IC50 in experiment [1] (Homo sapiens) is 0.003 nM; in experiment [2] (Homo sapiens), 6.8 nM. In experiment [2], the “Activity Attenuation Ratio” value is on record as 2250.
On to `CCC(=O)N1c2ccccc2[C@H](Nc2ccc(C(=O)NCCCNC(=O)c3ccc(C4=N[C@@H](CC(=O)OC5CCC(O)CC5)c5nnc(C)n5-c5sc(C)c(C)c54)cc3)cc2)C[C@@H]1C` (stereo partly drawn) [Compound 13d, 4-Hydroxycyclohexyl 2-((S)-2,3,9-trimethyl-4-(4-((3-(4-(((2S,4R)-2-methyl-1-propionyl-1,2,3,4-tetrahydroquinolin-4-yl)amino)benzamide)propyl)carbamoyl)phenyl)-6H-thieno[3,2-f][1,2,4]triazolo[4,3-a][1,4]diazepin-6-yl)acetate], for which, in experiment [1], the IC50 was 0.53 nM and the IC90 was 1.19 nM. Moreover, in experiment [2], the “Activity Attenuation Ratio” value stood at 52 and the IC50 was 27.8 nM.
